The values that follow come from patent US10456385B2 (priority 2011, dated 2019).

SMILES strings stand for the structures.

The assay relates to Male ICR mice. The assay can be described thus: Novel Object Recognition Test (NORT) in MK-801-induced amnesia mice. Format: in vivo. Conditions: Mus musculus, po, unit mg/kg from method, read-out: MED (dose at which NORT relative RI is given).
With `O=C(NC1CN2CCC1CC2)c1ccc(=O)n(-c2nccs2)c1` (centres unmarked) [Example 1, N-(1-azabicyclo[2.2.2]octan-3-yl)-6-oxo-1-(2-thiazolyl)-3-pyridinecarboxamide], the minimal effective dose came to 0.03 mg/kg. For the compound `O=C(N[C@H]1CN2CCC1CC2)c1ccc(=O)n(-c2nccs2)c1` [Example 2, N-[(3R)-1-azabicyclo[2.2.2]octan-3-yl)-6-oxo-1-(2-thiazolyl)-3-pyridinecarboxamide], the minimal effective dose came to 0.01 mg/kg. The result for `Cc1cnc(-n2cc(C(=O)NC3CN4CCC3CC4)ccc2=O)s1` (centres unmarked) [Example 10, N-(1-azabicyclo[2.2.2]octan-3-yl)-1-(5-methyl-2-thiazolyl)-6-oxo-3-pyridinecarboxamide] reads 0.3 mg/kg. For `Cc1cnc(-n2cc(C(=O)N[C@H]3CN4CCC3CC4)ccc2=O)s1` [Example 11, N-[(3R)-1-azabicyclo[2.2.2]octan-3-yl]-1-(5-methyl-2-thiazolyl)-6-oxo-3-pyridinecarboxamide], the minimal effective dose was 0.03 mg/kg. With `CCc1cnc(-n2cc(C(=O)NC3CN4CCC3CC4)ccc2=O)s1` (centres unmarked) [Example 13, N-(1-azabicyclo[2.2.2]octan-3-yl)-1-(5-ethyl-2-thiazolyl)-6-oxo-3-pyridinecarboxamide] the figure was 0.3 mg/kg; with `CCc1cnc(-n2cc(C(=O)N[C@H]3CN4CCC3CC4)ccc2=O)s1` [Example 14, N-[(3R)-1-azabicyclo[2.2.2]octan-3-yl]-1-(5-ethyl-2-thiazolyl)-6-oxo-3-pyridinecarboxamide], 0.03 mg/kg; with `CC(C)c1cnc(-n2cc(C(=O)NC3CN4CCC3CC4)ccc2=O)s1` (centres unmarked) [Example 17, N-(1-azabicyclo[2.2.2]octan-3-yl)-6-oxo-1-(5-propan-2-yl-2-thiazolyl)-3-pyridinecarboxamide], 0.3 mg/kg. Regarding `CC(C)(C)c1cnc(-n2cc(C(=O)NC3CN4CCC3CC4)ccc2=O)s1` (centres unmarked) [Example 20, N-(1-azabicyclo[2.2.2]octan-3-yl)-1-(5-tert-butyl-2-thiazolyl)-6-oxo-3-pyridinecarboxamide], the minimal effective dose amounted to 0.3 mg/kg.

As to `O=C(NC1CN2CCC1CC2)c1ccc(=O)n(-c2ncc(C3CCCCC3)s2)c1` (centres unmarked) [Example 24, N-(1-azabicyclo[2.2.2]octan-3-yl)-1-(5-cyclohexyl-2-thiazolyl)-6-oxo-3-pyridinecarboxamide], the minimal effective dose stood at 0.03 mg/kg.

For `O=C(NC1CN2CCC1CC2)c1ccc(=O)n(-c2ncc(Cl)s2)c1` (centres unmarked) [Example 26, N-(1-azabicyclo[2.2.2]octan-3-yl)-1-(5-chloro-2-thiazolyl)-6-oxo-3-pyridinecarboxamide], the minimal effective dose stood at 0.3 mg/kg. With `O=C(NC1CN2CCC1CC2)c1ccc(=O)n(-c2nc3ccccc3s2)c1` (centres unmarked) [Example 33, N-(1-azabicyclo[2.2.2]octan-3-yl)-1-(1,3-benzothiazole-2-yl)-6-oxo-3-pyridinecarboxamide], the minimal effective dose was 0.01 mg/kg.
